Experimental findings from ChEMBL document CHEMBL1154323, “Bioactive scalaranes from the Thai sponge Hyrtios gumminae” (J Nat Prod, 2009) are described below.

Assay type in all cases: functional, cell-based
The test system of experiment [1] is KB. Kind of experiment: Cytotoxicity against human KB cells.
Experiment [2] deals with T47D. The experiment can be described thus: Cytotoxicity against human T47D cells.
A short description of experiment [3]: Cytotoxicity against human HuCCa1 cells. Particulars: HuCC-A1.
Experiment [4] relates to HeLa. The experiment can be described thus: Cytotoxicity against human HeLa cells.
Experiment [5] has as its system NCI-H69. The experiment can be described thus: Cytotoxicity against human adriamycin resistant H69 cells.
For experiment [6], the system named is MDA-MB-231. Kind of experiment: Cytotoxicity against human MDA-MB-231 cells.
The test system of experiment [7] is NCI-H69. The experiment can be described thus: Cytotoxicity against human adriamycin resistant H69 cells >100 uM.
Experiment [8] has as its system HeLa. The experiment can be described thus: Cytotoxicity against human HeLa cells >100 uM.
The subject of experiment [9] is MDA-MB-231. The experiment can be described thus: Cytotoxicity against human MDA-MB-231 cells >100 uM.
Experiment [10] has as its system T47D. The experiment can be described thus: Cytotoxicity against human T47D cells >100 uM.
The subject of experiment [11] is KB. Kind of experiment: Cytotoxicity against human KB cells >100 uM.
The test system of the next experiment is HuCC-A1. The experiment can be described thus: Cytotoxicity against human HuCCa1 cells at >100 uM.

The structures appear in SMILES notation. Active and inactive are the calls of the source. No cut-off for these calls is given here. Bounds are passed on as bounds.

As usually defined, the IC50 is the concentration that inhibits the measured activity by half. Read a high IC50 as lower potency. Regarding `CC1(C)CCC[C@]2(C)[C@H]3C[C@@H](O)[C@]4(C)[C@H]5COC(=O)C5=CC[C@H]4[C@]3(C)CC[C@@H]12`, the IC50 in the experiment with KB [1] is 7 µM; in the experiment with T47D [2], 5.2 µM; in experiment [3] it was 42 µM; in the experiment with HeLa [4], 23 µM; with NCI-H69 [5], 57 µM; with MDA-MB-231 [6] it was 5.9 µM.

Turning to `CC(C)CCC[C@@H](C)[C@H]1CC[C@H]2[C@@H]3CC=C4C[C@@H](O)CC[C@]4(C)[C@H]3CC[C@]12C`, the outcome with NCI-H69 [7], in the experiment with HeLa [8], in the experiment with MDA-MB-231 [9], in the experiment with T47D [10], with KB [11] and in the experiment on HuCC-A1 was inactive.

Regarding `CC1(C)CCC[C@]2(C)[C@H]3C[C@@H](O)[C@]4(C)C5=C(CC[C@H]4[C@]3(C)CC[C@@H]12)COC5=O`, the outcome with NCI-H69 [7], in the experiment with HeLa [8], in the experiment with MDA-MB-231 [9], with T47D [10], with KB [11] and in the experiment with HuCC-A1 was inactive.

As to `COc1cc([C@@H]2c3cc4c(cc3[C@@H](O[C@@H]3O[C@@H]5CO[C@@H](C)O[C@H]5[C@H](O)[C@H]3O)[C@H]3COC(=O)[C@H]23)OCO4)cc(OC)c1O` [ETOPOSIDE], the IC50 with KB [1] stood at 0.5 µM; in the experiment with T47D [2] it was 0.1 µM; in experiment [3] it was 5.1 µM; with HeLa [4] it was 0.4 µM; in the experiment on NCI-H69 [5], 46 µM; in the experiment with MDA-MB-231 [6], 0.3 µM.

`CC1(C)CCC[C@]2(C)[C@H]3C[C@@H](O)[C@]4(C)C5=C(C(=O)O[C@H]5O)[C@H](O)C[C@H]4[C@]3(C)CC[C@@H]12` [HYRTIOLIDE]: the IC50 came to 12 µM in the experiment on KB [1]; 34 µM in the experiment on T47D [2]; 57 µM in experiment [3]; 22 µM in the experiment with HeLa [4]; 26 µM with MDA-MB-231 [6].

As to `CC1(C)CCC[C@]2(C)[C@H]3C[C@](C)(C=O)[C@@H](C[C@H](O)c4ccoc4)[C@]3(C)CC[C@@H]12` [HYRTIOSAL], the IC50 in the experiment on KB [1] stood at 7.8 µM; in the experiment on T47D [2], 9.1 µM; in experiment [3], 9.1 µM; in the experiment with HeLa [4], 18 µM; in the experiment on NCI-H69 [5], 31 µM; in the experiment on MDA-MB-231 [6], 5.4 µM.

`CC(=O)O[C@H]1C[C@H]2[C@]3(C)CC[C@H]4C(C)(C)CCC[C@]4(C)[C@H]3C[C@@H](O)[C@]2(C)c2cocc21` [SCALARAFURAN]: the IC50 was found to be 58 µM in the experiment on KB [1]; 28 µM in the experiment on T47D [2]; 49 µM in [3]; 63 µM in the experiment on HeLa [4]; 51 µM with NCI-H69 [5]; 14 µM in the experiment with MDA-MB-231 [6].

Take `CO[C@@H]1c2occc2[C@@H](O)C[C@H]2[C@]3(C)CC[C@H]4C(C)(C)CCC[C@]4(C)[C@H]3C[C@@]21C` [SIMILAN A]: the half-maximal inhibitory concentration (IC50) is 75 µM in the experiment on KB [1]; 70 µM in the experiment on T47D [2]; 90 µM in [3]; 125 µM in the experiment on HeLa [4]; greater than 125 µM in the experiment with NCI-H69 [5]; 58 µM in the experiment with MDA-MB-231 [6].
